Patent publication US8324228B2, “Pyrimidine classical cannabinoid compounds and related methods of use” (priority 2008, dated 2012)

Test system: glioblastoma brain cancer cell line LN-229
Experiment: Cytotoxicity assay (CCK8 viability)
Type: cell-based
Details: Homo sapiens, cytotoxicity against LN-229 cells, 18 hours incubation
Description: Cytoxocity assay: Cells were seeded on a 96 well polystyrene plate in full serum media at a density of 75,000 cells per milliliter, 100 μL per well. Plates were incubated at 37° C. and 5% CO2 for 24 hours to allow cell attachment. Drug solutions were prepared in DMSO at 100× concentration and mixed 1:100 in 1% FBS media to yield the desired concentration. Drug-media mixtures were vortexed immediately prior to administration to cells. Full serum media was removed and replaced with drug-media mixtures and incubated for 18 hours. 10 μL of Cell Counting Kit 8 (CCK8, Dojindo# CK04-11) was added to each well to colormetrically assess viability. After 2-4 hours of incubation with the CCK8 dye, absorbance was read at 450 nm by a BioTek Synergy 2 plate reader.
The cytotoxicity of selected compounds against the glioblastoma brain cancer cell line LN-229 is depicted in Table 1.

C[C@@H]1CC[C@H]2[C@@H](C1)c1c(O)nc(C(C)(C)c3cccs3)nc1OC2(C)C [Compound 6e, (6aS,9R,10aR)-6,6,9-Trimethyl-3-(2-(thiophen-2-yl)propan-2-yl)-6a,7,8,9,10,10a-hexahydro-6H-isochromeno[3,4-d]pyrimidin-1-ol]
EC50: 30.1 µM

C[C@@H]1CC[C@H]2[C@@H](C1)c1c(O)nc(C(C)(C)C3CCCCC3)nc1OC2(C)C [Compound 6d, (6aS,9R,10aR)-3-(2-Cyclohexylpropan-2-yl)-6,6,9-trimethyl-6a,7,8,9,10,10a-hexahydro-6H-isochromeno[3,4-d]pyrimidin-1-ol]
EC50: 10.6 µM

CCCCCCC(C)(C)c1nc(O)c2c(n1)OC(C)(C)[C@H]1CC[C@@H](C)C[C@@H]21 [Compound 6b, (6aS,9R,10aR)-6,6,9-Trimethyl-3-(2-methyloctan-2-yl)-6a,7,8,9,10,10a-hexahydro-6H-isochromeno[3,4-d]pyrimidin-1-ol]
EC50: 27.3 µM
